In patent US10626093B2, “Polymorphic form of crystalline rosuvastatin calcium and novel processes for crystalline as well as amorphous rosuvastatin calcium” (MOREPEN LABORATORIES LIMITED, priority 2016, dated 2020):

What was measured:
[1] = Stability study of Rosuvastatin calcium form M2 (plant batches, RT); assay type: physicochemical
Method: According to still another embodiment of current invention, The form M2 is stable at 30° C. with 65% RH for 24 months & 40° C. with 75% RH for 6 months for all ICH/EP/USP grade.

[2] = Stability study of Rosuvastatin calcium form M (30° C./65% RH and 40° C./75% RH); assay type: physicochemical
Method: According to one more aspect of current invention, the form M is stable at 30° C. with 65% RH for 48 months & 40° C. with 75% RH for 6 months for all ICH/EP/USP grade.

[3] = 40° C. with 75% RH for 6 months

7-[4-(4-flurophenyl)-6-isopropyl-2-(N-methyl-N-methyl sulfonyl amino)-pyrimidin-5-yl]-(3R,5S)-dihydroxy-hept-6-enoic acid Calcium salt [form M2]
Stability ([1]; 30° C. with 65% RH for 24 months): stable | Stability [1, 3]: stable

7-[4-(4-flurophenyl)-6-isopropyl-2-(N-methyl-N-methylsulfonylamino)-pyrimidin-5-yl]-(3R,5S)-dihydroxy-hept-6-enoic acid Calcium salt [form M]
Stability ([2]; 30° C. with 65% RH for 48 months): stable | Assay (OAB) ([2]; 30° C./65% RH, 3 months): 99.58 % w/w | Description ([2]; 30° C./65% RH, 3 months): A white | Related Substances (HPLC) Individual Unknown Imp. ([2]; 30° C./65% RH, 3 months): 0.02% | Related Substances (HPLC) Lactone ([2]; 30° C./65% RH, 3 months): 0.05% | Related Substances (HPLC) RT-07 ([2]; 30° C./65% RH, 3 months): 0.05% | Related Substances (HPLC) Total Imp. ([2]; 30° C./65% RH, 3 months): 0.16% | Water ([2]; 30° C./65% RH, 3 months): 5.30% | Assay (OAB) ([2]; 30° C./65% RH, 6 months): 99.54 % w/w | Description ([2]; 30° C./65% RH, 6 months): A white | Related Substances (HPLC) Individual Unknown Imp. ([2]; 30° C./65% RH, 6 months): 0.04% | Related Substances (HPLC) Lactone ([2]; 30° C./65% RH, 6 months): 0.04% | Related Substances (HPLC) RT-07 ([2]; 30° C./65% RH, 6 months): 0.05% | Related Substances (HPLC) Total Imp. ([2]; 30° C./65% RH, 6 months): 0.14% | Water ([2]; 30° C./65% RH, 6 months): 5.43% | Assay (OAB) ([2]; 30° C./65% RH, 9 months): 99.33 % w/w | Description ([2]; 30° C./65% RH, 9 months): A white | Related Substances (HPLC) Individual Unknown Imp. ([2]; 30° C./65% RH, 9 months): 0.02% | Related Substances (HPLC) Lactone ([2]; 30° C./65% RH, 9 months): 0.04% | Related Substances (HPLC) RT-07 ([2]; 30° C./65% RH, 9 months): 0.05% | Related Substances (HPLC) Total Imp. ([2]; 30° C./65% RH, 9 months): 0.14% | Water ([2]; 30° C./65% RH, 9 months): 5.44% | Assay (OAB) ([2]; 30° C./65% RH, 12 months): 99.55 % w/w | Description ([2]; 30° C./65% RH, 12 months): A white | Related Substances (HPLC) Anti-Isomer ([2]; 30° C./65% RH, 12 months): 0.04% | Related Substances (HPLC) Individual Unknown Imp. ([2]; 30° C./65% RH, 12 months): 0.02% | Related Substances (HPLC) Lactone ([2]; 30° C./65% RH, 12 months): 0.05% | Related Substances (HPLC) RT-07 ([2]; 30° C./65% RH, 12 months): 0.06% | Related Substances (HPLC) Total Imp. ([2]; 30° C./65% RH, 12 months): 0.17% | Water ([2]; 30° C./65% RH, 12 months): 5.55% | Assay (OAB) ([2]; 30° C./65% RH, 18 months): 99.70 % w/w | Description ([2]; 30° C./65% RH, 18 months): A white | Related Substances (HPLC) Anti-Isomer ([2]; 30° C./65% RH, 18 months): 0.03% | Related Substances (HPLC) Individual Unknown Imp. ([2]; 30° C./65% RH, 18 months): 0.02% | Related Substances (HPLC) Lactone ([2]; 30° C./65% RH, 18 months): 0.04% | Related Substances (HPLC) RT-07 ([2]; 30° C./65% RH, 18 months): 0.05% | Related Substances (HPLC) Total Imp. ([2]; 30° C./65% RH, 18 months): 0.16% | Water ([2]; 30° C./65% RH, 18 months): 5.57% | Assay (OAB) ([2]; 30° C./65% RH, 24 months): 99.81 % w/w | Description ([2]; 30° C./65% RH, 24 months): A white | Related Substances (HPLC) Anti-Isomer ([2]; 30° C./65% RH, 24 months): 0.04% | Related Substances (HPLC) Individual Unknown Imp. ([2]; 30° C./65% RH, 24 months): 0.02% | Related Substances (HPLC) Lactone ([2]; 30° C./65% RH, 24 months): 0.04% | Related Substances (HPLC) RT-07 ([2]; 30° C./65% RH, 24 months): 0.05% | Related Substances (HPLC) Total Imp. ([2]; 30° C./65% RH, 24 months): 0.15% | Water ([2]; 30° C./65% RH, 24 months): 5.72% | Assay (OAB) ([2]; 30° C./65% RH, 36 months): 99.75 % w/w | Description ([2]; 30° C./65% RH, 36 months): A white | Related Substances (HPLC) Anti-Isomer ([2]; 30° C./65% RH, 36 months): 0.04% | Related Substances (HPLC) Individual Unknown Imp. ([2]; 30° C./65% RH, 36 months): 0.02% | Related Substances (HPLC) Lactone ([2]; 30° C./65% RH, 36 months): 0.04% | Related Substances (HPLC) RT-07 ([2]; 30° C./65% RH, 36 months): 0.05% | Related Substances (HPLC) Total Imp. ([2]; 30° C./65% RH, 36 months): 0.16% | Water ([2]; 30° C./65% RH, 36 months): 5.74% | Assay (OAB) ([2]; 30° C./65% RH, 48 months): 99.66 % w/w | Description ([2]; 30° C./65% RH, 48 months): A white | Related Substances (HPLC) Anti-Isomer ([2]; 30° C./65% RH, 48 months): 0.05% | Related Substances (HPLC) Individual Unknown Imp. ([2]; 30° C./65% RH, 48 months): 0.02% | Related Substances (HPLC) Lactone ([2]; 30° C./65% RH, 48 months): 0.04% | Related Substances (HPLC) RT-07 ([2]; 30° C./65% RH, 48 months): 0.05% | Related Substances (HPLC) Total Imp. ([2]; 30° C./65% RH, 48 months): 0.16% | Water ([2]; 30° C./65% RH, 48 months): 5.90% | Stability [2, 3]: stable | Assay (OAB) ([2]; 40° C./75% RH, 1 month): 100.03 % w/w | Description ([2]; 40° C./75% RH, 1 month): A white | Related Substances (HPLC) Individual Unknown Imp. ([2]; 40° C./75% RH, 1 month): 0.03% | Related Substances (HPLC) Lactone ([2]; 40° C./75% RH, 1 month): 0.04% | Related Substances (HPLC) RT-07 ([2]; 40° C./75% RH, 1 month): 0.05% | Related Substances (HPLC) Total Imp. ([2]; 40° C./75% RH, 1 month): 0.14% | Water ([2]; 40° C./75% RH, 1 month): 5.65% | Assay (OAB) ([2]; 40° C./75% RH, 2 months): 99.93 % w/w | Description ([2]; 40° C./75% RH, 2 months): A white | Related Substances (HPLC) Individual Unknown Imp. ([2]; 40° C./75% RH, 2 months): 0.02% | Related Substances (HPLC) Lactone ([2]; 40° C./75% RH, 2 months): 0.04% | Related Substances (HPLC) RT-07 ([2]; 40° C./75% RH, 2 months): 0.05% | Related Substances (HPLC) Total Imp. ([2]; 40° C./75% RH, 2 months): 0.15% | Water ([2]; 40° C./75% RH, 2 months): 5.59% | Assay (OAB) ([2]; 40° C./75% RH, 3 months): 100.03 % w/w | Description ([2]; 40° C./75% RH, 3 months): A white | Related Substances (HPLC) Individual Unknown Imp. ([2]; 40° C./75% RH, 3 months): 0.02% | Related Substances (HPLC) Lactone ([2]; 40° C./75% RH, 3 months): 0.04% | Related Substances (HPLC) RT-07 ([2]; 40° C./75% RH, 3 months): 0.05% | Related Substances (HPLC) Total Imp. ([2]; 40° C./75% RH, 3 months): 0.13% | Water ([2]; 40° C./75% RH, 3 months): 5.66% | Assay (OAB) ([2]; 40° C./75% RH, 6 months): 99.59 % w/w | Description ([2]; 40° C./75% RH, 6 months): A white | Related Substances (HPLC) Individual Unknown Imp. ([2]; 40° C./75% RH, 6 months): 0.02% | Related Substances (HPLC) Lactone ([2]; 40° C./75% RH, 6 months): 0.04% | Related Substances (HPLC) RT-07 ([2]; 40° C./75% RH, 6 months): 0.04% | Related Substances (HPLC) Total Imp. ([2]; 40° C./75% RH, 6 months): 0.12% | Water ([2]; 40° C./75% RH, 6 months): 5.63% | Assay (OAB) ([2]; Initial): 100.08 % w/w | Description ([2]; Initial): A white | Related Substances (HPLC) Individual Unknown Imp. ([2]; Initial): 0.02% | Related Substances (HPLC) Lactone ([2]; Initial): 0.02% | Related Substances (HPLC) RT-07 ([2]; Initial): 0.05% | Related Substances (HPLC) Total Imp. ([2]; Initial): 0.13% | Water ([2]; Initial): 5.06%
